Measurements: patent publication US20100004128A1, “HERBICIDAL ISOXAZOLINE COMPOUNDS” (SYNGENTA CROP PROTECTION, INC., priority 2006, published 2010)

Test system: Monocotyledonous and dicotyledonous test plants
Test: Herbicidal action, application pre-emergence
Assay type: in vivo
Set-up: key: 10=total damage to plant; 0=no damage to plant
Settings: spray solution 1000 mg/l, scale 0-10; for Herbicidal action (damage score) AGSTE: Agrostis tenius; for Herbicidal action (damage score) AMARE: Amaranthus retroflexus; for Herbicidal action (damage score) DIGSA: Digitaria sanguinalis; for Herbicidal action (damage score) POATR: Poa trivialis; for Herbicidal action (damage score) SETFA: Setaria faberi; for Herbicidal action (damage score) SETIT: Setaria italica
Procedure: Monocotyledonous and dicotyledonous test plants were sown in sterilised standard soil in seed trays each having 96 cells. After one day (pre-emergence) or after 8 to 9 days cultivation (post-emergence) under controlled conditions in a climatic chamber (cultivation at 23/17° C., day/night; 13 hours light; 50-60% humidity; after application at 24/19° C., day/night), the plants were treated with an aqueous spray solution of 1000 mg/l of the active ingredient used (incl. 10% DMSO as solvent). The plants were grown on in the climatic chamber until the test was evaluated (10=total damage to plant, 0=no damage to plant) after 9 or 13 days.

Compound	Herbicidal action (damage score) AGSTE	Herbicidal action (damage score) AMARE	Herbicidal action (damage score) DIGSA	Herbicidal action (damage score) POATR	Herbicidal action (damage score) SETFA	Herbicidal action (damage score) SETIT
CC1(C)CC([S+]([O-])C(F)(F)c2nn(C3CCCC3)nc2C(F)(F)F)=NO1 (racemic) [1.31]	10	0	9	7	9	–
C=CCn1nc(C(F)(F)F)c(C(F)(F)[S+]([O-])C2=NOC(C)(C)C2)n1 (racemic) [1.34]	10	9	10	10	10	–
Cc1nn(C)nc1C(F)(Cl)S(=O)(=O)C1=NOC(C)(C)C1 (racemic) [Compound No. 1.07]	10	9	10	10	–	9
Cn1nc(C(F)S(=O)(=O)C2=NOC(C)(C)C2)c(C(F)(F)F)n1 (racemic) [Compound No. 1.11]	10	10	10	10	–	10
CCn1nc(C(F)(F)F)c(C(F)(F)[S+]([O-])C2=NOC(C)(C)C2)n1 (racemic) [Compound No. 1.16]	10	10	10	10	9	–
Cc1nn(C(F)F)nc1C(F)S(=O)(=O)C1=NOC(C)(C)C1 (racemic) [Compound No. 1.19]	10	10	10	10	10	–
Cc1nn(C(F)F)nc1C(F)[S+]([O-])C1=NOC(C)(C)C1 (racemic) [Compound No. 1.21]	10	10	10	10	10	–
Cn1nc(C(F)(F)F)c(C(F)(F)S(=O)(=O)C2=NOC(C)(C)C2)n1 [1.09]	10	10	10	10	–	10
CCn1nc(C(F)(F)F)c(C(F)(F)S(=O)(=O)C2=NOC(C)(C)C2)n1 [1.15]	10	10	10	10	10	–
CC(C)n1nc(C(F)(F)F)c(C(F)(F)S(=O)(=O)C2=NOC(C)(C)C2)n1 [1.17]	10	10	9	10	10	–
Cc1nn(C(F)F)nc1C(F)(F)S(=O)(=O)C1=NOC(C)(C)C1 [1.20]	10	10	10	10	9	–
COCCn1nc(C(F)(F)F)c(C(F)(F)S(=O)(=O)C2=NOC(C)(C)C2)n1 [1.23]	10	10	10	10	10	–
CCc1nn(C)nc1C(F)(F)S(=O)(=O)C1=NOC(C)(C)C1 [1.26]	10	10	10	10	10	–
CC1(C)CC(S(=O)(=O)C(F)(F)c2nn(C3CCCC3)nc2C(F)(F)F)=NO1 [1.29]	10	8	9	6	9	–
C=CCn1nc(C(F)(F)F)c(C(F)(F)S(=O)(=O)C2=NOC(C)(C)C2)n1 [1.32]	10	10	10	10	10	–
Cn1ncc(C(F)(F)S(=O)(=O)C2=NOC(C)(C)C2)n1 [1.35]	10	10	9	10	9	–
Cn1ncc(C(F)(F)[S+]([O-])C2=NOC(C)(C)C2)n1 (centres unmarked) [1.36]	10	9	10	10	9	–
CCn1ncc(C(F)S(=O)(=O)C2=NOC(C)(C)C2)n1 (centres unmarked) [1.37]	10	10	9	10	9	–
CCn1ncc(C(F)(F)S(=O)(=O)C2=NOC(C)(C)C2)n1 [1.38]	10	10	9	10	9	–
CCn1ncc(C(F)(F)[S+]([O-])C2=NOC(C)(C)C2)n1 (centres unmarked) [1.40]	10	10	9	10	9	–
Cc1nn(C(C)C)nc1C(F)(F)S(=O)(=O)C1=NOC(C)(C)C1 [1.41]	10	10	10	10	9	–
COc1nn(C)nc1C(F)(F)S(=O)(=O)C1=NOC(C)(C)C1 [1.43]	10	10	10	0	10	–
COc1nn(C)nc1C(F)(F)[S+]([O-])C1=NOC(C)(C)C1 (centres unmarked) [1.44]	10	10	10	0	9	–
Cn1nc(Br)c(C(F)S(=O)(=O)C2=NOC(C)(C)C2)n1 (centres unmarked) [1.45]	10	9	10	10	9	–
Cn1nc(Br)c(C(F)(F)S(=O)(=O)C2=NOC(C)(C)C2)n1 [1.46]	10	10	10	10	9	–
